The test system of assay [1] is poly(rA)·poly(rU) (RNA, polymer) A/U. As to the kind of experiment: UV melting. The conditions noted are these: NaCac 2.5 mM; pH 7.0; 1:1 ratio complex/polynucleotide; free Tm 47.9 °C; per base.
The subject of assay [2] is poly(rU)*poly(rA)·poly(rU) (RNA, polymer) U/A/U. The assay is described as follows: UV melting. The conditions noted are these: NaCac 2.5 mM; pH 7.0; 1:1 ratio complex/polynucleotide; free Tm 46.9 °C; per base.
Assay [3] relates to poly(rA)·poly(rU) (RNA, polymer) A/U. The assay is described as follows: ethidium bromide displacement fluorescence. The conditions noted are these: NaCac 2.5 mM; pH 7.0; tracer ethidium bromide; some interaction.
For assay [4] the test system is unchanged. As to the kind of experiment: UV-vis absorbance titration, HypSpec2014 fit. To be noted: NaCac 2.5 mM; pH 7.0, 25.0 °C; per base pair, site size n = 1.
Assay [5] has as its system poly(rU)*poly(rA)·poly(rU) (RNA, polymer) U/A/U. The assay is described as follows: UV-vis absorbance titration, HypSpec2014 fit. The conditions noted are these: NaCac 2.5 mM; pH 7.0, 25.0 °C; per base triplet, site size n = 1.

Broadly, the ΔTm is the shift of the melting midpoint relative to a reference.

Consider `C=[C-]c1cccc(OC(=O)c2ccccc2OC(C)=O)c1.[C-]#[O+].[C-]#[O+].[C-]#[O+].[Ru+2].[Ru+2].c1cc[cH-]c1.c1cc[cH-]c1`, for which the ΔTm was -6.5 ± 0.9 °C in assay [1] and 1.6 ± 0.5 °C in assay [2]. For the same compound, the binding entry in assay [3] is “yes”. In addition, the K result in assay [4] was “(6.0 ± 0.9) × 10^5”; in assay [5] it was “(3.1 ± 0.9) × 10^5”.

(Values after publication PMC10410612 (2023).)
